In patent US7713994B2 (Wyeth LLC, priority 2005, dated 2010):

Tests used:
cyclin D1/cdk 4 enzyme = target: T1, cyclin D1/cdk 4 enzyme (Homo sapiens, UniProt P11802); assay: CDK4 ELISA kinase assay (phospho-Rb ser 795 detection); type: biochemical; details: In Vitro Enzyme Assays, 200 μM ATP, read-out: CDK4 IC50
T1 construct: made in house; host or cells: Sf9 insect cells, recombinant baculovirus
Procedure, shortened: (§1)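 GST-Rb C-terminal fragment coated on wells; kinase reaction: 200 μM ATP, 0.5 mg/ml BSA, HEPES pH 7.5, 10 mM MgCl2, baculovirus/Sf9 cyclin-CDK, 30° C, 1 h. Readout anti-phospho-Rb Ser795, HRP, TMB, A450. Test compound 10 ug/ml final.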

cyclin E/CDK2 enzyme = target: T2, cyclin E/CDK2 enzyme (Homo sapiens, UniProt P24941); assay: CDK2 ELISA kinase assay (phospho-Rb ser 795 detection); type: biochemical; details: In Vitro Enzyme Assays, read-out: CDK2 IC50
T2 construct: made in house; host or cells: Sf9 insect cells, recombinant baculovirus
Procedure, shortened: as §1

cyclin B/CDK1 enzyme = target: T3, cyclin B/CDK1 enzyme (Homo sapiens, UniProt P06493); assay: CDK1 ELISA kinase assay (phospho-Rb ser 795 detection); type: biochemical; details: In Vitro Enzyme Assays, read-out: CDK1 IC50
T3 construct: purchased New England BioLabs; host or cells: Sf9 insect cells, recombinant baculovirus
Procedure, shortened: as §1

BT474 = assay: Cytotoxicity assay (SRB), BT474; type: cell-based; details: Homo sapiens, BT-474, 144 h, BT474 cells, SRB, 6 days; read-out: In Vitro Cellular Activity IC50 BT474
Procedure, shortened: (§2)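 Protein staining with sulforhodamine B after cold TCA fixation served as the survival endpoint (A540, relative to untreated cells). Before staining, cells were incubated with compound at 37 °C, 7% CO2 for 3 days, or 6 days for BT474.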

HCT-116 = assay: Cytotoxicity assay (SRB), HCT-116; type: cell-based; details: Homo sapiens, HCT-116, 72 h, HCT116 cells, SRB, three days; read-out: In Vitro Cellular Activity IC50 HCT116
Procedure, shortened: as §2

LoVo = assay: Cytotoxicity assay (SRB), LoVo; type: cell-based; details: Homo sapiens, LoVo, 72 h, LoVo cells, SRB, three days; read-out: In Vitro Cellular Activity IC50 LOVO
Procedure, shortened: as §2

MCF-7 = assay: Cytotoxicity assay (SRB), MCF-7; type: cell-based; details: Homo sapiens, MCF7, 72 h, MCF-7 cells, SRB, three days; read-out: In Vitro Cellular Activity IC50 MCF-7
Procedure, shortened: as §2

T1 sequence (P11802 whole entry, species assumed): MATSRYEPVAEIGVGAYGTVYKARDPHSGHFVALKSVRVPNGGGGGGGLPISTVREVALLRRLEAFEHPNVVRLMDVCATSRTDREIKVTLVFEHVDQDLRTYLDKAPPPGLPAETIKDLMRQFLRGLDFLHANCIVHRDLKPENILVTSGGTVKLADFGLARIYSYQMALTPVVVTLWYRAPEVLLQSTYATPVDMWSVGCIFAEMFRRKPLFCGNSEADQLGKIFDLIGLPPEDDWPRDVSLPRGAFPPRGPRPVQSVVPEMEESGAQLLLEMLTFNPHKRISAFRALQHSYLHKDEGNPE
T1 sequence (P24385 whole entry partner, species assumed): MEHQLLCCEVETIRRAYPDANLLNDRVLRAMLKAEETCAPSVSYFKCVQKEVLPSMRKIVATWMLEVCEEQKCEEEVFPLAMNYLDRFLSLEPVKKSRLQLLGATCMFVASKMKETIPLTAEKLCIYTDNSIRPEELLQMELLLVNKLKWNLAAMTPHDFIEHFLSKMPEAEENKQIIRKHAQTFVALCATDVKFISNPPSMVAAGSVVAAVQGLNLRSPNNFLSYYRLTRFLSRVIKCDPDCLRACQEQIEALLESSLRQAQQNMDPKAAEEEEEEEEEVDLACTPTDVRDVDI
T3 sequence (P06493 whole entry): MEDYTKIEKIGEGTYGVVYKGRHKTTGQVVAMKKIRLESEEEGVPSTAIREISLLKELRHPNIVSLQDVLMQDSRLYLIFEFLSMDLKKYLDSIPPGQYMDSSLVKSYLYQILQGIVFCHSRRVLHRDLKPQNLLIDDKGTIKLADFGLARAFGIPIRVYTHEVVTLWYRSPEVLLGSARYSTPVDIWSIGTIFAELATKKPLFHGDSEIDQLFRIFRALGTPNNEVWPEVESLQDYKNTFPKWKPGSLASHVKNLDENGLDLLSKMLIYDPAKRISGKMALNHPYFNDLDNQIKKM
T3 sequence (P14635 whole entry partner): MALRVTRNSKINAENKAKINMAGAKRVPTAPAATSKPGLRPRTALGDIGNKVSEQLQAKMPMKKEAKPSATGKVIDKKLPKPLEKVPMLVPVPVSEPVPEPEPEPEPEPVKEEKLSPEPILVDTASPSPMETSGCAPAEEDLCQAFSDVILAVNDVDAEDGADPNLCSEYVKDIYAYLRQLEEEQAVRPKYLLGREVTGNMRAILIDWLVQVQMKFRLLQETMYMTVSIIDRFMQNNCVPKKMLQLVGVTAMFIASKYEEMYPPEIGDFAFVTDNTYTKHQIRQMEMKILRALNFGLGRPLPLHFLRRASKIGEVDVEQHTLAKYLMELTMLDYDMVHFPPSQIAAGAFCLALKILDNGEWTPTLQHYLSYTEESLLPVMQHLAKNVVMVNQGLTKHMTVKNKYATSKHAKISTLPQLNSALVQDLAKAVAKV

SMILES | IC50 (cyclin D1/cdk 4 enzyme) [µM] | IC50 (cyclin E/CDK2 enzyme) [µM] | IC50 (cyclin B/CDK1 enzyme) [µM] | IC50 (BT474) [µM] | IC50 (HCT-116) [µM] | IC50 (LoVo) [µM] | IC50 (MCF-7) [µM] | melting point [°C]
COc1cc(CN/C=C2\C(=O)NC(=O)c3ccc(-c4ccc(Oc5ccccc5)cc4)cc32)cc(O)c1OC [Example 100, (4Z)-6-(4-Phenoxyphenyl)-4-{[(3-hydroxy-4,5-dimethoxybenzyl)amino]methylene}isoquinoline-1,3(2H,4H)-dione] | 0.34 | > 50 | > 50 | 8.8 | 13.6 | 27.8 | 11 | 240 to 241
O=C1NC(=O)c2ccc(Br)cc2/C1=C/N1CCN(CCN2CCOCC2)CC1 [Example 105, (4Z)-6-Bromo-4-{[4-(2-morpholin-4-ylethyl)piperazin-1-yl]methylene}isoquinoline-1,3(2H,4H)-dione] | 24.3 | > 50 | > 50 | 36.9 | 42.6 | 42.9 | > 50 | 156 to 156.5
CN(C)CCN1CCN(/C=C2\C(=O)NC(=O)c3ccc(Br)cc32)CC1 [Example 106, (4Z)-6-Bromo-4-({4-[2-(dimethylamino)ethyl]piperazin-1-yl}methylene)isoquinoline-1,3(2H,4H)-dione] | 31.5 | > 50 | > 50 | 44.6 | > 50 | > 50 | > 50 | 166 to 167
O=C1NC(=O)c2ccc(/C=C/CCCCl)cc2/C1=C/Nc1ccc(CN2CCCCC2)cc1 [Example 112, (4Z)-6-[(1E)-5-Chloropent-1-enyl]-4-({[4-(piperidin-1-ylmethyl)phenyl]amino}methylene)isoquinoline-1,3(2H,4H)-dione] | 2.9 | > 50 | 3.8 | 2.3 | 0.98 | 1.9 | 3.3 | 268 to 269
COc1cc(CN/C=C2\C(=O)NC(=O)c3ccc(-c4ccc(Cl)cc4)cc32)cc(O)c1OC [Example 113, (4Z)-6-(4-Chlorophenyl)-4-{[(3-hydroxy-4,5-dimethoxybenzyl)amino]methylene}isoquinoline-1,3(2H,4H)-dione] | 0.02 | 37.2 | 47.6 | 11 | 5.8 | 2.9 | 6.2 | 240 to 241
Nc1ccc(CN/C=C2\C(=O)NC(=O)c3ccc(I)cc32)cc1O [Example 122, (4Z)-4-{[(4-Amino-3-hydroxybenzyl)amino]methylene}-6-iodoisoquinoline-1,3(2H,4H)-dione] | 0.04 | 1.6 | 16.1 | 5.2 | 7.5 | 9.9 | 17 | 250 to 251
O=C1NC(=O)c2ccc(-c3ccc(CN4CCCCC4)cc3)cc2C1=CNc1ccc(CN2CCCCC2)cc1 [Example 125, 6-(4-Piperidin-1-ylmethyl-phenyl)-4-[(4-piperidin-1-ylmethyl-phenylamino)-methylene]-4H-isoquinoline-1,3-dione] | 44.4 | > 50 | > 50 | 3.9 | 1.2 | 1.1 | 1.8 | 159 to 160
O=C1NC(=O)c2ccc(I)cc2/C1=C/Nc1ccc(CN2CCCC2)cc1 [Example 126] | 0.66 | 10 | > 50 | 0.9 | 3.4 | 5.1 | 2.3 | 186 to 187
O=C1NC(=O)c2ccc(-c3ccc(F)cc3)cc2/C1=C/Nc1ccc(CN2CCCC2)cc1 [Example 127, (4Z)-6-(4-Fluorophenyl)-4-({[4-(pyrrolidin-1-ylmethyl)phenyl]amino}methylene)isoquinoline-1,3(2H,4H)-dione] | 0.37 | > 50 | > 50 | 1.4 | 1.3 | 2.9 | 1.4 | 152 to 153
